Activity calls are given as the source filed them. The rule behind the calls is not given here.
Legend:
[1] = Inhibition of rabbit intestinal ACAT2; set-up: species or system Oryctolagus cuniculus
[2] = Inhibition of SOAT2 in New Zealand white rabbit intestinal microsomes assessed as reduction in cholesteryl oleate formation incubated for 5 mins in presence of [14C]-oleoyl-CoA and BSA complex by TLC method; set-up: species or system Oryctolagus cuniculus, Intestine
[3] = Inhibition of SOAT1 in arterial homogenates isolated from 1% cholesterol fed New Zealand white rabbit assessed as reduction in cholesteryl oleate formation incubated for 5 mins in presence of [14C]-oleoyl-CoA and BSA complex by TLC method; type: tissue-based, Oryctolagus cuniculus
[4] = Drug metabolism in New Zealand white rabbit intestinal microsomes assessed as 2-((6-((2,6-Diisopropylphenyl)amino)-6-oxohexyl)thio)-benzo[d]oxazole-4-carboxylic acid formation after 30 mins; type: ADME, Oryctolagus cuniculus, Intestine, microsome; conditions: 0.5 h
[5] = biological target: T1, Sterol O-acyltransferase 1 (Mus musculus, UniProt Q61263); test: Inhibition of ACAT1 in mouse J774 cells assessed as reduction in esterified cholesterol accumulation after 18 hrs in presence of 25-hydroxycholesterol; type: cell-based
T1 sequence (Q61263 whole entry): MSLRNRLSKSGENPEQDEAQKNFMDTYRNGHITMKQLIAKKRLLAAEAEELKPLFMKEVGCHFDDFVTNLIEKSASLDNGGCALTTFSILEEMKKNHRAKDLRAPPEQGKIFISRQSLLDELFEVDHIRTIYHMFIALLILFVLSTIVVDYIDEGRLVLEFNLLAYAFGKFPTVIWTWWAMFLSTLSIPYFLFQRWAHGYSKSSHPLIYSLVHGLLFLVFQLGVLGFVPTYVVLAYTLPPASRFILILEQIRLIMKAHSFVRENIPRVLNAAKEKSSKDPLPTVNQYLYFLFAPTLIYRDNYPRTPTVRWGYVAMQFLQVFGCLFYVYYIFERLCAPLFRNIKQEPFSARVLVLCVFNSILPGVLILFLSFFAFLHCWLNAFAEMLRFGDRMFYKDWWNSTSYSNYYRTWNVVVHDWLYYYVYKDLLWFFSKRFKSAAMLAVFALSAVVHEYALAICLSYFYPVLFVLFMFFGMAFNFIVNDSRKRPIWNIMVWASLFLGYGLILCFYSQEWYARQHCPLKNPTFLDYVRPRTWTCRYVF

[6] = species: Oryctolagus cuniculus; test: Selectivity ratio of IC50 for inhibition of SOAT2 in New Zealand white rabbit intestinal microsomes to IC50 for inhibition of SOAT1 in arterial homogenates isolated from 1% cholesterol fed New Zealand white rabbit
[7] = Drug metabolism in New Zealand white rabbit intestinal microsomes assessed as -((6-((2,6-Diisopropylphenyl)amino)-6-oxohexyl)thio)benzo-[d]oxazole-7-carboxylic acid formation after 30 mins; type: ADME, Oryctolagus cuniculus, Intestine, microsome; conditions: 0.5 h
[8] = tested on: Hamster; test: Toxicity in Bio F1B hamster model of diet-induced atherosclerosis assessed as reduction in total plasma cholesterol at 10 mg/kg/day added to chow pellets relative to control; type: organism-based; set-up: scale not given: the % may be the effect or the level left; conditions: cricetinae, in vivo
[9] = tested on: Hamster; test: Antiatherosclerotic activity in Bio F1B hamster model of diet-induced atherosclerosis assessed as reduction in lipid accumulation areas in aortic arch at 1 mg/kg/day added to chow pellets by oil red O staining based assay relative to control; type: functional; conditions: Cricetinae
[10] = tested on: Hamster; test: Toxicity in Bio F1B hamster model of diet-induced atherosclerosis assessed as reduction in total plasma cholesterol at 1 mg/kg/day added to chow pellets relative to control; type: organism-based; set-up: scale not given: the % may be the effect or the level left; conditions: cricetinae, in vivo
[11] = Tmax in non-fasted Sprague-Dawley rat at 30 mg/kg, po by LC-MS/MS analysis; type: ADME, organism-based; conditions: in vivo
[12] = tested on: Hamster; test: Antiatherosclerotic activity in Bio F1B hamster model of diet-induced atherosclerosis assessed as reduction in lipid accumulation areas in aortic arch at 3 mg/kg/day added to chow pellets by oil red O staining based assay relative to control; type: functional; conditions: Cricetinae
[13] = tested on: Hamster; test: Antiatherosclerotic activity in Bio F1B hamster model of diet-induced atherosclerosis assessed as reduction in lipid accumulation areas in aortic arch at 0.3 mg/kg/day added to chow pellets by oil red O staining based assay; type: functional, organism-based; conditions: Cricetinae
[14] = biological target: T1, Sterol O-acyltransferase 1; test: Inhibition of ACAT1 in mouse IC21 cells in presence of BSA; type: cell-based
[15] = AUC (0 to 8 hrs) in non-fasted Sprague-Dawley rat at 30 mg/kg, po by LC-MS/MS analysis; type: ADME, organism-based; set-up: dose 30 mg/kg, time < 8 hr, route oral; conditions: in vivo
[16] = tested on: Hamster; test: Toxicity in Bio F1B hamster model of diet-induced atherosclerosis assessed as reduction in total plasma cholesterol at 3 mg/kg/day added to chow pellets relative to control; type: organism-based; set-up: scale not given: the % may be the effect or the level left; conditions: cricetinae, in vivo
[17] = Cmax in non-fasted Sprague-Dawley rat at 30 mg/kg, po by LC-MS/MS analysis; type: ADME, organism-based; set-up: dose 30 mg/kg, route oral; conditions: in vivo
[18] = biological target: T2, Sterol O-acyltransferase 1 (Homo sapiens, UniProt P35610); test: Inhibition of ACAT1 in human monocytes-derived macrophages reduction in cholesteryl oleate formation preincubated for 2 hrs followed by [14C]-oleic acid/sodium oleate addition measured after 2 hrs in absence of albumin by TLC assay
T2 sequence (P35610 whole entry): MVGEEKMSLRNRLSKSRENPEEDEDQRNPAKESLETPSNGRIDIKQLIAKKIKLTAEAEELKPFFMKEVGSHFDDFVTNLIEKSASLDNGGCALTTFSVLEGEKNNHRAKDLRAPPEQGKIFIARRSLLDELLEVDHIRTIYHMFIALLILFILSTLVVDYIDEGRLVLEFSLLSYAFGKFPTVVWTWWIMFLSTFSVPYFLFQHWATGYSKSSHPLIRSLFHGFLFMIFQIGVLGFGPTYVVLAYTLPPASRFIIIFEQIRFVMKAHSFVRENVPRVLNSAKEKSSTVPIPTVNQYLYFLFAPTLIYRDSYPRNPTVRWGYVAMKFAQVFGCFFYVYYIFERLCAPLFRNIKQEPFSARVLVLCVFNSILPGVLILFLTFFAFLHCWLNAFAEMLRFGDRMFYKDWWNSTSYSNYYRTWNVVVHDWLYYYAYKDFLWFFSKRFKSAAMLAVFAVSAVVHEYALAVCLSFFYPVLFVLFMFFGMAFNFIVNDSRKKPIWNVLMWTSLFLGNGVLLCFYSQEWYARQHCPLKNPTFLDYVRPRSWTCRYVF

[19] = biological target: T1, Sterol O-acyltransferase 1; test: Inhibition of ACAT1 in mouse IC21 cells in absence of BSA; type: cell-based
[20] = biological target: T3, Sterol O-acyltransferase 1 (Rattus norvegicus, UniProt O70536); test: Inhibition of ACAT1 in 1 mg/ml rat liver microsomes
T3 sequence (O70536 whole entry): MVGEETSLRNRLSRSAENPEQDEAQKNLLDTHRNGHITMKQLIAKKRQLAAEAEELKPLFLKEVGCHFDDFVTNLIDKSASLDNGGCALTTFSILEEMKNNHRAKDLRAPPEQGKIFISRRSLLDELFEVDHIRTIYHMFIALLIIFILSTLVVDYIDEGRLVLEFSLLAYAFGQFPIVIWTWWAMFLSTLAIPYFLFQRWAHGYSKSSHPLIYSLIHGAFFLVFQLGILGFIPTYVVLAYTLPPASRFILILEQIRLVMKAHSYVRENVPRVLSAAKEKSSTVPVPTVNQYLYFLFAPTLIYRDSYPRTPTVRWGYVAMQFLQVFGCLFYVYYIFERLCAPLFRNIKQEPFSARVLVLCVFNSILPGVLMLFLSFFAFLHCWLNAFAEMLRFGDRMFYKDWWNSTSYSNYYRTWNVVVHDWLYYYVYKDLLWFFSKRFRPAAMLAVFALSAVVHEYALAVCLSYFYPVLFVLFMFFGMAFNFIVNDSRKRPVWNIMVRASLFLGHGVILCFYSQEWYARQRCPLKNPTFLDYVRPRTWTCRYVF

[21] = biological target: T2, Sterol O-acyltransferase 1; test: Inhibition of ACAT1 in human monocytes-derived macrophages reduction in cholesteryl oleate formation preincubated for 2 hrs followed by [14C]-oleic acid/BSA/sodium oleate addition measured after 2 hrs by TLC assay
[22] = biological target: T3, Sterol O-acyltransferase 1; test: Inhibition of ACAT1 in 0.2 mg/ml rat liver microsomes
[23] = tested on: Hamster; test: Antiatherosclerotic activity in Bio F1B hamster model of diet-induced atherosclerosis assessed as reduction in lipid accumulation areas in aortic arch at 10 mg/kg/day added to chow pellets by oil red O staining based assay relative to control; type: functional; conditions: Cricetinae

Compound	IC50 [2]	IC50 [3]	IC50 [5]	Ratio IC50 [6]	further results
COC(=O)c1cccc2oc(SCCCCCC(=O)Nc3c(C(C)C)cccc3C(C)C)nc12	810 nM	26 nM	900 nM	31.2	Drug metabolism [4]: Metabolite_Detected; Drug metabolism [7]: Metabolite_Detected
CC(C)c1cccc(C(C)C)c1NC(=O)CCCCCSc1nc2ccc(CO)cc2o1	180 nM	76 nM	7000 nM	2.4	–
CC(C)c1cccc(C(C)C)c1NC(=O)CCCCCCCCCSc1nc2ccccc2o1	14 nM	6 nM	100 nM	2.3	–

The next lines start with results.

IC50 [2]	IC50 [3]	IC50 [5]	Compound	Ratio IC50 [6]	further results
30 nM	190 nM	–	CCCCCCCCCCC(C)(C)C(=O)Nc1c(OC)cc(OC)cc1OC [CL-976]	–	IC50 [1]: 73 nM
29 nM	19 nM	460 nM	CC(C)c1cccc(C(C)C)c1NC(=O)CCCCCCCCCSc1nc2ccccc2[nH]1	1.5	–
65 nM	10 nM	1900 nM	CC(C)c1cccc(C(C)C)c1NC(=O)CCCCCSc1nc2ccccc2o1	6.5	–
13000 nM	31000 nM	590 nM	CC(C)c1cc(C(C)C)c(CC(=O)NS(=O)(=O)Oc2c(C(C)C)cccc2C(C)C)c(C(C)C)c1 [AVASIMIBE]	0.4	Activity [8]: 10%; inhibition in vivo at 1 mg/kg/day [9]: 33%; Activity [10]: 55%; Tmax [11]: 3.3 h; inhibition in vivo at 3 mg/kg/day [12]: 14%; inhibition [13]: Active; IC50 [14]: 760 nM; AUC(0-t) at 8 h [15]: 48100 ng·h/mL; Activity [16]: 25%; Cmax [17]: 4580 ng/mL; IC50 [18]: 25 nM; IC50 [19]: 60 nM; IC50 [20]: 12000 nM; IC50 [21]: 4100 nM; IC50 [22]: 700 nM; inhibition in vivo at 10 mg/kg/day [23]: 0%
